The target in the first assay is T1, human histamine H3 receptor (Homo sapiens, UniProt Q9Y5N1).
T1 construct: One microgram of supercoiled H3 receptor cDNA was added to the cells and mixed; expressed in transfected cells; membranes
T1 sequence (Q9Y5N1 whole entry): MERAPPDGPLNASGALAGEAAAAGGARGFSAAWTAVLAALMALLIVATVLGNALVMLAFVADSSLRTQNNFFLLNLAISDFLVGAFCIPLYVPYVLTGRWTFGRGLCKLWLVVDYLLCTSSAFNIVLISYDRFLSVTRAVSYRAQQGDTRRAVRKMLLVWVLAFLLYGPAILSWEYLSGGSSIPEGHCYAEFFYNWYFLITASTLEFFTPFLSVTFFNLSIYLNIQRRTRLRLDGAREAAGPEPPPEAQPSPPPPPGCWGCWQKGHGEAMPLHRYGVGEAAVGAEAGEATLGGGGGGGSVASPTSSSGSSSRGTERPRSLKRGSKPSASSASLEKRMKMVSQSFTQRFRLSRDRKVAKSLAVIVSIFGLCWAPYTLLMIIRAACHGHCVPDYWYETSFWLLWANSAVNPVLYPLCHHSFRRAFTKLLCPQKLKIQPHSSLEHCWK
Kind of assay: [3H]-N-methylhistamine binding. The following applies: Table 1; [3H]-N-methylhistamine binding. Here is the method:
Thus in the present invention receptor binding was determined using the human histamine H3 receptor (See Lovenberg et al Mol. Pharmacol. 1999, 1107). Screening using the human receptor is particularly important for the identification of new therapies for the treatment of human disease. Conventional binding assays for example are determined using rat synaptosomes (Garbarg et al J. Pharmacol. Exp. Ther. 1992, 263, 304), rat cortical membranes (West et al Mol. Pharmacol. 1990, 610), and guinea pig brain (Korte et al Biochem. Biophys. Res. Commun. 1990, 978). Only limited studies have been performed previously using human tissue but these allude to significant differences in the pharmacology of rodent and primate receptors (West et al Eur. J. Pharmacol. 1999, 233).
Transfection of Cells with Human Histamine Receptor
A 10 cm tissue culture dish with a confluent monolayer of SK-N-MC cells was split two days prior to transfection. Using sterile technique the media was removed and the cells were detached from the dish by the addition of trypsin. One fifth of the cells were then placed onto a new 10 cm dish. Cells were grown in a 37° C. incubator with 5% CO2 in Minimal Essential Media Eagle with 10% Fetal Bovine Serum. After two days cells were approximately 80% confluent. These were removed from the dish with trypsin and pelleted in a clinical centrifuge. The pellet was then re-suspended in 400 μL complete media and transferred to an electroporation cuvette with a 0.4 cm gap between the electrodes (Bio-Rad #165-2088). One microgram of supercoiled H3 receptor cDNA was added to the cells and mixed. The voltage for the electroporation was set at 0.25 kV, the capacitance was set at 960 μF. After electroporation the cells were diluted into 10 mL complete media and plated onto four 10 cm dishes. Because of the variability in the efficiency of electroporation, four different concentrations of cells were plated. The ratios used were; 1:20, 1:10, 1:5, with the remainder of the cells being added to the fourth dish. The cells were allowed to recover for 24 hours before adding the selection media (complete media with 600 μg/mL G418). After 10 days dishes were analyzed for surviving colonies of cells. Dishes with well isolated colonies were used. Cells from individual colonies were isolated and tested. SK-N-MC cells were used because they give efficient coupling for inhibition of adenylate cyclase. The clones that gave the most robust inhibition of adenylate cyclase in response to histamine were used for further study.
[^3H]-N-methylhistamine Binding
Cell pellets from histamine H3 receptor-expressing SK-N-MC cells were homogenized in 20 mM TrisHCl/0.5 mM EDTA. Supernatants from a 800 g spin were collected, recentrifuged at 30,000 g for 30 minutes. Pellets were re-homogenized in 50 mM Tris/5 mM EDTA (pH 7.4). Membranes were incubated with 0.8 nM [^3H]-N-methylhistamine plus/minus test compounds for 45 min at 25° C. and harvested by rapid filtration over GF/C glass fiber filters (pretreated with 0.3% polyethylenimine) followed by four washes with ice cold buffer. Filters were dried, added to 4 mL scintillation cocktail and then counted on a liquid scintillation counter. Non-specific binding was defined with 10 μM histamine. The pKi values were calculated based on a Kd of 800 pM and a ligand concentration ([L]) of 800 pM according to the formula: Ki=(IC50)/(1+([L]/(Kd))
As a reminder, the Ki is a measure of affinity in units of concentration, obtained from inhibition or displacement. Turning to `Brc1ccc([C@@H]2CC[C@H]3CCCCN32)cc1` (racemic) [Example 2], the Ki came out at 1000 nM.
Same read-out and setting: the same measure for `c1ccc(-c2ccc([C@H]3CC[C@H]4CCCCN43)cc2)cc1` (racemic) [Example 3]: 1000 nM; for `c1ccc(Oc2ccc([C@H]3CC[C@H]4CCCCN43)cc2)cc1` (racemic) [Example 11]: 400 nM; for `c1ccc(Oc2ccc([C@@H]3CC[C@H]4CCCCN43)cc2)cc1` (racemic) [Example 12]: 600 nM.
The same measure, in the same setting: with `c1cc([C@H]2CC[C@H]3CCCCN32)ccc1OCCN1CCCCC1` (racemic) [Example 16, 3-[4-(2-Piperidin-1-yl-ethoxy)-phenyl]-octahydro-indolizine] the figure was 9 nM; with `CN(C)CCCOc1ccc([C@H]2CC[C@H]3CCCCN32)cc1` (racemic) [Example 17, Dimethyl-{3-[4-(octahydro-indolizin-3-yl)-phenoxy]-propyl}-amine], 10 nM.

The assay is the same for the next values; noted with them: [3H]-N-methylhistamine 0.8 nM, membranes of H3 receptor-expressing SK-N-MC cells.
Turning to `c1cc([C@H]2CC3CCCCN3C2)ccc1OCCCN1CCCCC1` (mixture of isomers) [Example 68, anti-2-(4-(3-Piperidinylpropoxy)phenyl)octahydroindolizine], the affinity corresponds to a Ki of 0.2 nM.
The same measure, in the same setting: with `CC(C)(C)OC(=O)N1CCCCC1CCOc1ccc([C@H]2CC[C@H]3CCCCN32)cc1` (mixture of isomers) [Example 85, trans-3-{4-[2,2′-(1-tert-Butylcarboxylatepiperidinyl)ethoxy]phenyl}-octahydroindolizine] the figure was 51 nM; with `CN1CCCCC1CCOc1ccc([C@H]2CC[C@H]3CCCCN32)cc1` (mixture of isomers) [Example 87, trans-3-{4-[2,2′-(N-Methylpiperidinyl)ethoxy]phenyl}octahydroindolizine], 7 nM.
Compound `O=C(N1CCCCC1CCOc1ccc([C@H]2CC[C@H]3CCCCN32)cc1)C(F)(F)F` (mixture of isomers) [Example 88, trans-3-{4-[2,2′-(N-Trifluoroacetylpiperidinyl)ethoxy]phenyl}octahydroindolizine] showed a Ki of 71 nM.
Same read-out and setting: with `FC(F)(F)CN1CCCCC1CCOc1ccc([C@H]2CC[C@H]3CCCCN32)cc1` (mixture of isomers) [Example 89, trans-3-{4-[2,2′-(N-Trifluoroethylpiperidinyl)ethoxy]phenyl}octahydroindolizine] the figure was 47 nM.
On to `N=C(N)N1CCCCC1CCOc1ccc([C@H]2CC[C@H]3CCCCN32)cc1` (mixture of isomers) [Example 90, trans-3-{4-[2,2′-(N-Amidinopiperidinyl)ethoxy]phenyl}octahydroindolizine], for which the Ki is 80 nM.
Same read-out and setting: the same measure for `CN1CCCC1CCOc1ccc([C@H]2CC[C@H]3CCCCN32)cc1` (mixture of isomers) [Example 91, trans-3-{4-[2,2′-(N-Methylpyrrolidinyl)ethoxy]phenyl}octahydroindolizine]: 2 nM.
Take `OC(c1ccc(Cl)cc1)c1ccc(C2CCC3CCCCN32)cc1` (mixture of isomers) [Example 123, trans-3-{4-[(4-Chlorophenyl)methan-1-ol]phenyl}octahydroindolizine]: the Ki amounted to 803 nM.
On the same count and under the same terms, the same measure for `Brc1ccc([C@H]2CC[C@H]3CCCCN32)cc1` (racemic) [Example 1, trans-3-(4-bromophenyl)octahydroindolizine]: 325 nM.
Regarding `c1cc([C@H]2CC[C@H]3CCCCN32)ccc1OCCN1CCCCC1` (racemic) [Example 16, 3-[4-(2-Piperidin-1-yl-ethoxy)-phenyl]-octahydro-indolizine], the Ki was determined as 9.1 nM.
For the compound `CN(C)CCCOc1ccc([C@H]2CC[C@H]3CCCCN32)cc1` (racemic) [Example 17, Dimethyl-{3-[4-(octahydro-indolizin-3-yl)-phenoxy]-propyl}-amine], the affinity, expressed as Ki, was 9.5 nM.
Regarding `c1ccc(N2CCN(Cc3ccc([C@H]4CC[C@H]5CCCCN54)cc3)CC2)cc1` (racemic) [Example 23, trans-3-[4-(N-Phenyl-1-piperazinylmethyl)phenyl]octahydroindolizine], the Ki turned out to be 65 nM.
Same read-out and setting: the same measure for `c1cc(Sc2ccc([C@@H]3CCC[C@@H]4CCCN43)cc2)ccn1` (racemic) [Example 26, 5-[4-(4-Pyridinylthio)phenyl]octahydroindolizine]: 35 nM.

The values are drawn from US20050288323A1, “Octahydro-indolizine and quinolizine and hexahydro-pyrrolizine” (priority 2000, published 2005).
